Experimental data taken from PMC7356970, “A Population Pharmacokinetic and Pharmacodynamic Model of CKD-519” (Pharmaceutics, 2020).
Converted amounts (≈) assume the structure as drawn.

Columns and labels:
[1] = food effect on PK, single 200 mg, standard meal vs fasted; assay type: in vivo, human; conditions: single 200 mg with a standard meal; in house data
From the text: (§1) The exposure of CKD-519 increased with the dose. However, maximum plasma concentration (Cmax) and area under the plasma concentration-time curve (AUC) normalized by dose decreased with each incremental dose.

CETP activity [2] = biological target: T1, CETP activity (Homo sapiens, UniProt P11597); assay: food effect on inhibition of CETP activity, single 200 mg; assay type: in vivo
T1 construct: from tissue; host or cells: plasma of healthy subjects (sodium heparin tubes)
T1 sequence (P11597 18-493): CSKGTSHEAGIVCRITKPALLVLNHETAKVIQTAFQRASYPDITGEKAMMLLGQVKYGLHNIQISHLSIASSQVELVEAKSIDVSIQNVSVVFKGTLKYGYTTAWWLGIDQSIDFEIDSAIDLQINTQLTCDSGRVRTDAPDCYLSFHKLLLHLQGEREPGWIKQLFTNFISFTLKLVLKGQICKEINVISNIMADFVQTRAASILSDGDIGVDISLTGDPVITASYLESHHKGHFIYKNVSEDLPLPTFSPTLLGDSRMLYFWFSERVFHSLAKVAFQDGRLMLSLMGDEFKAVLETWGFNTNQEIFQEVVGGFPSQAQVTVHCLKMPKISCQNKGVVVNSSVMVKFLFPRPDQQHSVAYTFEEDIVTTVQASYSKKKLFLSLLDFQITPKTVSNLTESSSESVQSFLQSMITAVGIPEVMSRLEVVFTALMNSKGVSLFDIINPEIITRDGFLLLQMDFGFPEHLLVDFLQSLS
From the text: as §1

[3] = multiple-dose study in healthy male subjects, plasma PK and population PK model; assay type: in vivo, human; conditions: for CL/F: observed
Method: A randomized, double-blinded, placebo-controlled, multiple-dose, and dose-escalation study was conducted in a total of 32 healthy male subjects aged 19–55 years in four cohorts (50, 100, 200, and 400 mg). Six subjects were assigned to CKD-519, and two to matching placebo in each cohort. Dose escalation to the next cohort was done after the safety profile was reviewed. CKD-519 was available as two dosage forms of 50 and 100 mg tablets.
Enrolled subjects were admitted on day −1. CKD-519 or placebo was administered to randomly assigned subjects for 14 days with a standard breakfast meal (700–800 kcal, containing 5–25% fat content). All subjects were hospitalized until completion of blood sampling for PK and PD (from day −1 to day 21). All meals were nutritionally equivalent and provided at the same time scheduled throughout the study period. The participants were not permitted to take any drugs or herbal medications and also were restricted from consuming any other snacks or beverages during the study.
(§2) Blood samples for PK or PD were collected on days 1 (0, 1, 2, 3, 4, 5, 6, 7, 8, 10, 12, 18, and 24 h) and 14 (0, 1, 2, 3, 4, 5, 6, 7, 8, 10, 12, 18, 24, 32, 48, 72, 96, 120, 144, and 168 h), along with daily sampling on days 2 through 13 to determine trough levels of drug concentration, CETP activity, and lipid values. Each blood sample for PK and CETP activity was collected in sodium heparin tubes and then centrifuged at 1900 g for 10 min. Their aliquots were stored at or below […] until analysis. The plasma concentrations of CKD-519 were measured using a validated high-performance liquid chromatography-tandem mass spectrometry assay. A 100 μL plasma sample was mixed with 10 μL internal standard working solution and 300 μL acetonitrile. After centrifugation, 3 μL supernatant was injected into the column. The lower limit of quantification was 1.0 ng/mL. The calibration curve was linear over the concentration range of 1.0–2000 ng/mL. The precision of the assay was less than 2.7% coefficient of variation, and the accuracy of the assay was within the range of 93.7–113.0% [5]. Plasma CETP activity was measured by using a fluorescent assay method previously described. HDL-C and LDL-C were measured with an ADIVA 1650 Clinical Chemistry System (Siemens Medical Solutions, Tarrytown, NY, USA).
PK and PD models were developed using NONMEM version 7.3 (Icon Development Solutions, Ellicott City, MD, USA) using a first-order conditional estimation with interaction method (FOCE-INTER). R (version 3.6.1, R Foundation for Statistical Computing, Vienna, Austria) was used for data preparation, graphical analysis, and model diagnostics. The population PK-PD model was developed sequentially. The PK model was initially developed, and then the CETP model (PK-PD) was developed using individual PK parameters estimated from the final PK model. Finally, the cholesterol (HDL-C or LDL-C) models were developed using the individual CETP parameters estimated from the final CETP model.
Inter-individual variability (IIV) for each parameter in all models was assumed to follow a Gaussian distribution with a mean of 0 and variance of ω^2. For the PK model, once the IIV term was selected, the covariance between the terms was assessed using an omega block on selected parameters. As for the residual error, additive, proportional, and combined models were tested. The model was selected after a comparison of several criteria such as a decrease in the objective function value (OFV), completion of the estimation and covariance routines, the precision of the parameter and error estimates, and visual exploration of the diagnostic plots.
Several disposition models were assessed, including 1-, 2-, and 3- compartment structural models. Absorption was evaluated with first-order, zero-order (with and without lag time), Weibull-type, and Erlang’s model. The bioavailability was assessed about the effects of the dose and time. […]

Plasma CETP activity = biological target: T2, Plasma CETP activity (Homo sapiens, UniProt P11597); assay: population CETP model (turnover model), plasma CETP activity by fluorescent assay; assay type: in vivo
T2 construct: from tissue; host or cells: plasma of healthy subjects (sodium heparin tubes)
T2 sequence (P11597 18-493): T1 sequence (P11597 18-493)
Method: as §2
Since CETP inhibition is closely related to HDL-C increase and LDL-C decrease, the CETP model was included as a link between the PK model of CKD-519 and cholesterol (HDL-C and LDL-C) models. For the CETP model, CETP activity was used as a dependent variable as this was the primary parameter of interest.
The turnover model was used to describe the relationship between CETP activity and plasma concentration of CKD-519. The effect of CKD-519 was applied in the model as stimulating the elimination of CETP activity. Because the CETP activity increased over time in the placebo group, the response of placebo treatment was incorporated into the CETP model. The effects of CKD-519 and placebo treatment were evaluated as linear, Emax, or sigmoid Emax relationships. […]

HDL-C = assay: population HDL-C model (turnover, sigmoid Emax); assay type: in vivo, human
Method: as §2
(§3) For each of the HDL-C and LDL-C model development, their clinical laboratory results were used. Their responses by changing CETP activity were described using turnover models. Taking into account the physiological mechanism of CETP on lipid metabolism, the CETP effect was incorporated into the model as a stimulatory function of HDL-C elimination and an inhibitory function of LDL-C elimination. The effect of CETP activity on HDL-C or LDL-C was evaluated using linear, Emax, or sigmoid Emax models.
(§4) HDL-C and LDL-C models were best described with the sigmoid Emax function. The LDL-C in the placebo group tended to increase gradually over time. Thus, a linear model was used to describe the placebo effect on LDL-C after comparison with Emax and sigmoid Emax models. The changes in HDL-C and LDL-C concentration were described as follows:(7) dHDL/dt=Ksyn−Kdeg×AHDL×(1+RESCETP) (8) dLDL/dt=Ksy×(1+PLA)−Kdeg×ALDL×(1−RESCETP) (9) RESCETP=CETPactivityγ×Rmax/CETPactivityγ+R50γ (10) PLA=β×time where Ksyn and Ksy are the zero-order production rate constant, Kdeg is the first-order elimination rate constant, RESCETP is the change in CETP activity, Rmax is the maximal effect of CETP activity on HDL-C and LDL-C response, R50 is the CETP activity required to attain 50% maximal response of HDL-C and LDL-C, PLA is the placebo effect, and β is the proportionality constant.

LDL-C = assay: population LDL-C model (turnover, sigmoid Emax); assay type: in vivo, human
Method: as §2, §3, §4

serum CETP concentration = serum CETP concentration during multiple dosing; assay type: in vivo, human; conditions: time-dependent, in house data
From the text: As reported earlier in other CETP inhibitors, the administration of CKD-519 in this study led to an approximately 2.5 fold increase in serum CETP concentration in a time-dependent manner (in house data). In the placebo group, serum CETP concentration increased by about 30% after two weeks (in house data). It has been reported that transcription of the CETP gene is under the control of extrinsic and intrinsic factors. Dietary cholesterol up-regulates CETP expression in human CETP-transgenic mice, and plasma cholesterol levels also correlate with CETP mass in humans. The increase in CETP activity in the placebo group might be due to increased serum CETP mass because dietary cholesterol regularly served during hospitalization for three weeks could have promoted CETP expression. […] Linear, Emax, and sigmoid Emax models were tested to explain CETP activity increase in the placebo group, and the Emax model by time best described the placebo effect.

[4] = cited from earlier work
[5] = set-up: method as in PMID 30107219, PMID 27895466; conditions: at pH 7.4; cited from earlier work
CETP activity [6] = biological target: T1, CETP activity; set-up: method as in PMID 27895466; conditions: healthy subjects, cited from earlier work
[7] = final population PK model estimate

**Q.** For `COc1cc(F)c(C(C)C)cc1C1=C(CN2C(=O)O[C@H](c3cc(C(F)(F)F)cc(C(F)(F)F)c3)[C@@H]2C)CC(C)(C)CC1` [CKD-519], which “increase in AUC relative to the fasted state” value [1] is on record?
**A.** 5.8 fold

**Q.** What about the “increase in Cmax relative to the fasted state” value [1] of the same compound?
**A.** 8.7 fold

**Q.** What about the “inhibitory effect of CETP activity” value (CETP activity [2]; fasted group) of the same compound?
**A.** 81.5%

**Q.** And the “inhibitory effect of CETP activity” value (CETP activity [2]; fed group)?
**A.** 91.4%

**Q.** And the “increase of CL/F from 50 mg to 200 mg” value ([3]; 50 mg vs 200 mg)?
**A.** approximately 2.5 fold

**Q.** And the “increase of AUC after multiple administration compared to the first dose” value ([3]; 400 mg group)?
**A.** three-fold increase

**Q.** And the “α1, proportionality constant for fraction of first-order absorption process depending on time” value ([3]; 50, 100 and 200 mg dose groups)?
**A.** 0.002

**Q.** And the “ωBmax, interindividual variability on BMAX” value ([3]; CV%)?
**A.** 28.2%

**Q.** What about the “ωCL/F, interindividual variability on CL/F” value ([3]; CV%) of the same compound?
**A.** 15.6%

**Q.** What about the “ωKtr, interindividual variability on Ktr” value ([3]; CV%) of the same compound?
**A.** 14.1%

**Q.** And the “ωV3/F, interindividual variability on V3/F” value ([3]; CV%)?
**A.** 58.1%

**Q.** And the Tmax ([3]; all dose groups)?
**A.** approximately 1 h

**Q.** And the “Ka, absorption rate constant” value [3, 7]?
**A.** 1.09 h⁻¹

**Q.** And the “V2/F, volume of peripheral compartment 1” value [3, 7]?
**A.** 45.4 L

**Q.** And the “V3/F, volume of peripheral compartment 2” value [3, 7]?
**A.** 1006.0 L

**Q.** And the “V/F, volume of central compartment” value [3, 7]?
**A.** 11.4 L

**Q.** What about the “CL/F, clearance” value ([3]; final population PK model estimate, 50–400 mg daily for 14 days with standard meal) of the same compound?
**A.** 6.4 L/h

**Q.** What about the “Ktr, transit rate constant” value ([3]; final population PK model estimate, Erlang's absorption, five transit compartments) of the same compound?
**A.** 1.10 h⁻¹

**Q.** What about the CL/F ([3]; 50 mg) of the same compound?
**A.** 11.98 L/h

**Q.** What about the CL/F ([3]; 200 mg) of the same compound?
**A.** 30.04 L/h

**Q.** And the CL/F ([3]; 400 mg)?
**A.** 23.98 L/h

**Q.** And the half-life ([3]; terminal, across dose groups)?
**A.** 145.4 to 166.2 h

**Q.** And the “EC50, plasma drug concentration of half-maximal effect on CETP activity” value (Plasma CETP activity; CETP model estimate)?
**A.** 0.587 µg/mL

**Q.** And the “Emax, maximal effect of plasma drug concentration on CETP activity” value (Plasma CETP activity; CETP model estimate, stimulation of Kout)?
**A.** 18.2

**Q.** What about the “ωEmax, interindividual variability on Emax” value (Plasma CETP activity; CV%) of the same compound?
**A.** 39.5%

**Q.** And the “R50, CETP activity of half-maximal effect on HDL-C response” value (HDL-C; HDL-C model estimate)?
**A.** 185.0 pmol

**Q.** And the “Rmax, maximal effect of CETP activity on HDL-C response” value (HDL-C; HDL-C model estimate)?
**A.** 1.5

**Q.** And the “γ, steepness of the CETP activity versus HDL-C relationship” value (HDL-C; HDL-C model estimate)?
**A.** 2.1

**Q.** What about the “maximal increase in HDL-C” value (HDL-C; estimated) of the same compound?
**A.** 160–190%

**Q.** And the “ωGAM, interindividual variability on γ” value (LDL-C; CV%, LDL-C model)?
**A.** 50.9%

**Q.** And the “R50, CETP activity of half-maximal effect on LDL-C response” value (LDL-C; LDL-C model estimate)?
**A.** 80.7 pmol

**Q.** And the “Rmax, maximal effect of CETP activity on LDL-C response” value (LDL-C; LDL-C model estimate)?
**A.** 0.8

**Q.** What about the “γ, steepness of the CETP activity versus LDL-C relationship” value (LDL-C; LDL-C model estimate) of the same compound?
**A.** 2.2

**Q.** What about the “maximal decrease in LDL-C” value (LDL-C; estimated) of the same compound?
**A.** 47–66%

**Q.** And the “increase in serum CETP concentration” value (serum CETP concentration)?
**A.** approximately 2.5 fold

**Q.** And the aqueous solubility [4]?
**A.** less than 1.0 μg/mL

**Q.** What about the “solubility in deionized water” value ([4]; in vitro solubility test) of the same compound?
**A.** insoluble

**Q.** And the “solubility in ethyl alcohol” value ([4]; in vitro solubility test)?
**A.** freely soluble

**Q.** And the LogP [5]?
**A.** > 5.0

**Q.** And the “maximum inhibitory effect of CETP activity” value (CETP activity [6]; single administration 25–400 mg)?
**A.** 63–83%

**Q.** And the “EC50 (CETP activity)” value (CETP activity [6]; single administration)?
**A.** 0.0173 µg/mL (≈ 0.0288 µM)
